According to ChEMBL document CHEMBL4823252 (J Med Chem, 2021):
Active and inactive are the calls of the source. The calls are words filed in the database; no cut-off is given here.

What was measured:
MOLM-13 [1] = assay: Antiproliferative activity against human MOLM-13 cells incubated for 72 hrs by Cell Counting Kit-8 assay; format: functional, cell-based; conditions: MOLM-13, 72 h
[2] = target: Mast/stem cell growth factor receptor Kit (Homo sapiens, UniProt P10721); assay: Inhibition of c-KIT (unknown origin) incubated for 30 mins in presence of ATP by mobility shift assay
[3] = target: Vascular endothelial growth factor receptor 1 (Homo sapiens, UniProt P17948); assay: Inhibition of VEGFR1 (unknown origin) incubated for 30 mins in presence of ATP by mobility shift assay
[4] = target: Vascular endothelial growth factor receptor 2 (Homo sapiens, UniProt P35968); assay: Inhibition of VEGFR2 (unknown origin) incubated for 30 mins in presence of ATP by mobility shift assay
[5] = target: Receptor-type tyrosine-protein kinase FLT3 (Homo sapiens) (UniProt P36888); assay: Binding affinity to FLT3 (unknown origin) at 1000 nM relative to control
[6] = test system: Receptor-type tyrosine-protein kinase FLT3 (Homo sapiens), P36888 [D835V]; assay: Binding affinity to FLT3 D835V mutant (unknown origin) at 1000 nM relative to control
Homo sapiens = species on record: Homo sapiens; assay: Binding affinity to FLT3 ITD F691L mutant (unknown origin) at 1000 nM relative to control
HL-60 = assay: Antiproliferative activity against human HL-60 cells measured after 72 hrs by CCK8 assay; format: functional, cell-based; conditions: HL-60, 72 h
HeLa = assay: Antiproliferative activity against human HeLa cells measured after 72 hrs by CCK8 assay; format: functional, cell-based
MOLM-13 [7] = assay: Antiproliferative activity against human quizartinib-resistant MOLM-13 cells at 333 nM incubated for 72 hrs by CCK8 assay relative to control; format: functional
MOLM-13 [8] = assay: Antiproliferative activity against human quizartinib-resistant MOLM-13 cells at 37 nM incubated for 72 hrs by CCK8 assay relative to control; format: functional
MOLM-13 [9] = assay: Antiproliferative activity against human quizartinib-resistant MOLM-13 cells at 4 nM incubated for 72 hrs by CCK8 assay relative to control; format: functional
MV4-11 [10] = assay: Induction of cell cycle arrest in human MV4-11 cells assessed as accumulation at G1 phase at 1 nM incubated for 24 hrs by flow cytometry (reference value: 64.73%); format: functional
MV4-11 [11] = assay: Induction of cell cycle arrest in human MV4-11 cells assessed as accumulation at S phase at 1 nM incubated for 24 hrs by flow cytometry (reference value: 16.31%); format: functional
MV4-11 [12] = assay: Induction of cell cycle arrest in human MV4-11 cells assessed as accumulation at sub-G1 phase at 10 nM incubated for 24 hrs by flow cytometry (reference value: […]%); format: functional
MV4-11 [13] = assay: Induction of cell cycle arrest in human MV4-11 cells assessed as accumulation at G2/M phase at 10 nM incubated for 24 hrs by flow cytometry (reference value: 7.29%); format: functional
MV4-11 [14] = assay: Induction of cell cycle arrest in human MV4-11 cells assessed as accumulation at sub-G1 phase at 100 nM incubated for 24 hrs by flow cytometry (reference value: […]%); format: functional
MV4-11 [15] = assay: Induction of cell cycle arrest in human MV4-11 cells assessed as accumulation at S phase at 100 nM incubated for 24 hrs by flow cytometry (reference value: 16.31%); format: functional
MOLM-13 [16] = assay: Induction of cell cycle arrest in human MOLM-13 cells assessed as accumulation at G2/M phase at 1 nM incubated for 24 hrs by flow cytometry (reference value: […]); format: functional
MOLM-13 [17] = assay: Induction of cell cycle arrest in human MOLM-13 cells assessed as accumulation at sub-G1 phase at 100 nM incubated for 24 hrs by flow cytometry (reference value: 4.24%); format: functional
MOLM-13 [18] = assay: Induction of cell cycle arrest in human MOLM-13 cells assessed as accumulation at G1 phase at 100 nM incubated for 24 hrs by flow cytometry (reference value: 69.08%); format: functional
MOLM-13 [19] = assay: Induction of cell cycle arrest in human MOLM-13 cells assessed as accumulation at S phase at 100 nM incubated for 24 hrs by flow cytometry (reference value: 16.28%); format: functional
MV4-11 [20] = assay: Induction of apoptosis in human MV4-11 cells assessed as viable cells at 1 nM incubated for 24 hrs by flow cytometry (reference value: 98.26%); format: functional; conditions: read-out: Activity
MV4-11 [21] = assay: Induction of apoptosis in human MV4-11 cells assessed as late apoptotic cells at 1 nM incubated for 24 hrs by flow cytometry (reference value: 0.58%); format: functional
MV4-11 [22] = assay: Induction of apoptosis in human MV4-11 cells assessed as late apoptotic cells at 10 nM incubated for 24 hrs by flow cytometry (reference value: 0.58%); format: functional
MOLM-13 [23] = assay: Induction of apoptosis in human MOLM-13 cells assessed as necrotic cells at 100 nM incubated for 24 hrs by flow cytometry (reference value: 0.45%); format: functional
MV4-11 [24] = assay: Induction of apoptosis in human MV4-11 cells incubated for 24 hrs by flow cytometry; format: functional, cell-based
[25] = target: Receptor-type tyrosine-protein kinase FLT3 (Homo sapiens) (UniProt P36888); assay: Inhibition of FLT3 in human MV4-11 cells assessed as reduction in STAT5 phosphorylation at 10 uM incubated for 2 hrs by Western blot analysis; format: cell-based
[26] = target: Receptor-type tyrosine-protein kinase FLT3 (Homo sapiens) (UniProt P36888); assay: Inhibition of FLT3 in human MOLM-13 cells assessed as reduction in autophosphorylation at tyr589/591 residue incubated for 2 hrs by Western blot analysis; format: cell-based
[27] = AUC (0 to last) in Sprague-Dawley rat at 1 mg/kg, iv; format: ADME, organism-based; design: route intravenous, time 0 - last, dose 1 mg/kg; conditions: in vivo
[28] = AUC (0 to infinity) in Sprague-Dawley rat at 10 mg/kg, po; format: ADME, organism-based; design: route oral, time infinity, dose 10 mg/kg; conditions: in vivo
[29] = Cmax in Sprague-Dawley rat at 10 mg/kg, po; format: ADME, organism-based; design: route oral, dose 10 mg/kg; conditions: in vivo
[30] = Oral bioavailability in Sprague-Dawley rat at 10 mg/kg; format: ADME, organism-based; conditions: in vivo
MOLM-13 [31] = assay: Antitumor activity against human MOLM-13 cells xenografted in mouse assessed as tumor growth inhibition at 20 mg/kg, po administered for 16 days measured once every 2 days relative to control; format: functional; conditions: MOLM-13, po, 384 h, time 16 day, read-out: TGI
[32] = Toxicity in mouse xenografted with human MV4-11 cells assessed as effect on lung at 2.5 to 10 mg/kg, po administered for 16 days by hematoxylin and eosin staining assay; format: organism-based; conditions: in vivo, 384 h, dose 2.5-10 mg/kg, time 16 day
[33] = Toxicity in mouse xenografted with human MV4-11 cells assessed as effect on kidney at 2.5 to 10 mg/kg, po administered for 16 days by hematoxylin and eosin staining assay; format: organism-based; conditions: in vivo, 384 h, dose 2.5-10 mg/kg, time 16 day
[34] = Toxicity in mouse xenografted with human MOLM-13 cells assessed as effect on heart at 10 to 40 mg/kg, po administered for 20 days by hematoxylin and eosin staining assay; format: organism-based; conditions: in vivo, 480 h, dose 10-40 mg/kg, time 20 day
[35] = Toxicity in mouse xenografted with human MOLM-13 cells assessed as effect on lung at 10 to 40 mg/kg, po administered for 20 days by hematoxylin and eosin staining assay; format: organism-based; conditions: in vivo, 480 h, dose 10-40 mg/kg, time 20 day
[36] = Toxicity in mouse xenografted with human MOLM-13 cells assessed as effect on liver at 10 to 40 mg/kg, po administered for 20 days by hematoxylin and eosin staining assay; format: organism-based; conditions: in vivo, 480 h, dose 10-40 mg/kg, time 20 day

Mast/stem cell growth factor receptor Kit, sequence (P10721 whole entry): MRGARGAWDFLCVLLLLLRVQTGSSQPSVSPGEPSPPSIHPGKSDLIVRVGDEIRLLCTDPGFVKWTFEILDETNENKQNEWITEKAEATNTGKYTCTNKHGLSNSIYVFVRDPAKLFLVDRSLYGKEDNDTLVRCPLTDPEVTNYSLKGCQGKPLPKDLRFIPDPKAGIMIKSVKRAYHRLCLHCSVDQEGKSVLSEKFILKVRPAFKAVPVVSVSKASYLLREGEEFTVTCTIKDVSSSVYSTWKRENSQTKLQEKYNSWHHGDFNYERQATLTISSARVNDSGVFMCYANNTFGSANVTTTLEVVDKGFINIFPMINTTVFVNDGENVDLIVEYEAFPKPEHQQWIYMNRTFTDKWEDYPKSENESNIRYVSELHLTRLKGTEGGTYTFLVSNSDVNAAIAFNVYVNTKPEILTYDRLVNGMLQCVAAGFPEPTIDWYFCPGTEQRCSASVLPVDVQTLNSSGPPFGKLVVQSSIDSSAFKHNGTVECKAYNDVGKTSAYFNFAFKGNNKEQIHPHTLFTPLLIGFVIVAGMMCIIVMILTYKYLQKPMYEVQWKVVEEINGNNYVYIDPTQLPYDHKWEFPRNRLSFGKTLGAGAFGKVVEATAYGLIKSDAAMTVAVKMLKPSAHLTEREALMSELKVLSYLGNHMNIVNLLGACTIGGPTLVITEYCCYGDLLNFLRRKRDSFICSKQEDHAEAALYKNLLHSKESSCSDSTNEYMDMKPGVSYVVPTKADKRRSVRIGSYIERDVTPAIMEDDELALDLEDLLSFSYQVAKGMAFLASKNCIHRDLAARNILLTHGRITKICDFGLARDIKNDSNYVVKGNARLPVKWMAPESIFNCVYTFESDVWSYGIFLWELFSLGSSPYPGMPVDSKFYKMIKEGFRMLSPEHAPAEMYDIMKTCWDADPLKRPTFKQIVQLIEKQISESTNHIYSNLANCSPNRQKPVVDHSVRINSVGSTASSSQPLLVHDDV
Vascular endothelial growth factor receptor 2, sequence (P35968 whole entry): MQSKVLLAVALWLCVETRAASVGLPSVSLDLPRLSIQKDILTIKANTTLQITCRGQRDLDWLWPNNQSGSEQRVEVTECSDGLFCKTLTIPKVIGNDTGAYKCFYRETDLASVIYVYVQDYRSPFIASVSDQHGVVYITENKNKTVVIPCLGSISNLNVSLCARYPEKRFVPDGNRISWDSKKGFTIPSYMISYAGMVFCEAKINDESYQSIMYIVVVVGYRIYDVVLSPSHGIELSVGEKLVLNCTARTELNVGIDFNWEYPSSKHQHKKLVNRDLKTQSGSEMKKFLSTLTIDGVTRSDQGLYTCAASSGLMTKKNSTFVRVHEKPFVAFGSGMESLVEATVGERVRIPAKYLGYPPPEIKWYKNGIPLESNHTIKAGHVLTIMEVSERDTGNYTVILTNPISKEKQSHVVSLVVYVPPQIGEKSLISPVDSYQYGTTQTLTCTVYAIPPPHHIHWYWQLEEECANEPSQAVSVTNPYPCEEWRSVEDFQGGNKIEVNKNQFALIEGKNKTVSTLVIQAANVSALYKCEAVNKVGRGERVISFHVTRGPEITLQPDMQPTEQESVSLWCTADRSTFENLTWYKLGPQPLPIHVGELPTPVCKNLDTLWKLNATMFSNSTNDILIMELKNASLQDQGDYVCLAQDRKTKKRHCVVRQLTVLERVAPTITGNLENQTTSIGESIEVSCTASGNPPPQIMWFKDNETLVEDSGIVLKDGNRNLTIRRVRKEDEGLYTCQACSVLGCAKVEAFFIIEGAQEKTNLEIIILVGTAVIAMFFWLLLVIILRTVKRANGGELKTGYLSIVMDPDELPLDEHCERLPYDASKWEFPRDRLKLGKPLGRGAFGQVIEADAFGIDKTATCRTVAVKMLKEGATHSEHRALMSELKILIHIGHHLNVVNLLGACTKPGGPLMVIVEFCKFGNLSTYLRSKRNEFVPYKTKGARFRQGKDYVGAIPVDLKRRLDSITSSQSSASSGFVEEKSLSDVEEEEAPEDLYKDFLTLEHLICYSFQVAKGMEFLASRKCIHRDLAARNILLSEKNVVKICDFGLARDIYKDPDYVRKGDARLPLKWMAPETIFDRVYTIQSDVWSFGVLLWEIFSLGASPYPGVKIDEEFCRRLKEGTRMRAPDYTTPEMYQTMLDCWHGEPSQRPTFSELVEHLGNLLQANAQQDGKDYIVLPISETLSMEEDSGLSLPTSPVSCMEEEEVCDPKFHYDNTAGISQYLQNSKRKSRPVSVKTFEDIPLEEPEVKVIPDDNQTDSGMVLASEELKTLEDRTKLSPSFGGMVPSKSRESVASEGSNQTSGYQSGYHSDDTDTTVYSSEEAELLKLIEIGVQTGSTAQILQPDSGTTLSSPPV
Vascular endothelial growth factor receptor 1, sequence (P17948 whole entry): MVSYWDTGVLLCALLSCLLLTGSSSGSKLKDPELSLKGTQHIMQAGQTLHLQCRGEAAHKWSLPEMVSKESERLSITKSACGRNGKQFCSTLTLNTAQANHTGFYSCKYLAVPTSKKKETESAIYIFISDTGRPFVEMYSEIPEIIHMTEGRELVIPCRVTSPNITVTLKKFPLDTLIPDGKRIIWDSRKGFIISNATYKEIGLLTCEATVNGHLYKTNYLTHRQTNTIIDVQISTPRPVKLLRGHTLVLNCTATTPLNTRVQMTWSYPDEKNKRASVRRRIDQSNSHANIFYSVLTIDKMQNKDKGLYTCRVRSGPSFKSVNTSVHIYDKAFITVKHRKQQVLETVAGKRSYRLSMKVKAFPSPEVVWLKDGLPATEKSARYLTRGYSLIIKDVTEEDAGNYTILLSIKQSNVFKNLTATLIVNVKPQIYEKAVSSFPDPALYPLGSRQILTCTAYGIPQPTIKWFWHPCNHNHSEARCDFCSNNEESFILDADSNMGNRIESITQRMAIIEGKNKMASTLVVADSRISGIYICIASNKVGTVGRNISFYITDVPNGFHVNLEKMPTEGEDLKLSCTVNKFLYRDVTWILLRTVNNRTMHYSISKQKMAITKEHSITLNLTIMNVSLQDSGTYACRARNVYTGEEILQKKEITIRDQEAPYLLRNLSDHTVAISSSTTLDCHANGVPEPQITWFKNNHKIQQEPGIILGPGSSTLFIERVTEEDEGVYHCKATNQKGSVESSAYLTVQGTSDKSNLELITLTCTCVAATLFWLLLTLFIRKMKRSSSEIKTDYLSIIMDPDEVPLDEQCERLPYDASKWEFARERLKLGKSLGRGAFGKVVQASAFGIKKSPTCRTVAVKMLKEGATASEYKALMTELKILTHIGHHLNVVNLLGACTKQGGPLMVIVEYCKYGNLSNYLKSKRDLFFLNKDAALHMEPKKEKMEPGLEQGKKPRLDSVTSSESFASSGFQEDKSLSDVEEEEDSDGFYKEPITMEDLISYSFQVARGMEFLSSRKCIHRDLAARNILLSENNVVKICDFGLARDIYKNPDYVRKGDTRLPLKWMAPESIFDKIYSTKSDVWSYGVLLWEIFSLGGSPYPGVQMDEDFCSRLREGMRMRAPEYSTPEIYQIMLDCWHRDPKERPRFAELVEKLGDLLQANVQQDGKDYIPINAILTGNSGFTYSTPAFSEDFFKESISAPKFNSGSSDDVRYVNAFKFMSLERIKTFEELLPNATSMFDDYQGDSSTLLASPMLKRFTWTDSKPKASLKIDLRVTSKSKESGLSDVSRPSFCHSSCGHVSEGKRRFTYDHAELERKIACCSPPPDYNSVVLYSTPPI

SMILES: Cc1c(NC(=O)CCN2CCCC2)c[nH]c1/C=C1\C(=O)Nc2ccc(F)cc21
- IC50 (MOLM-13 [1]): 0.0355 µM
- IC50 [2]: > 1 µM
- IC50 [3]: 0.12 µM
- IC50 [4]: 0.137 µM
- Activity [5]: Active
- Activity [6]: Active
- Activity (Homo sapiens): Active
- IC50 (HL-60): 4.72 µM
- IC50 (HeLa): 1.96 µM
- Activity (MOLM-13 [7]): 13.4%
- Activity (MOLM-13 [8]): 3.8%
- Activity (MOLM-13 [9]): 3.3%
- Activity (MV4-11 [10]): 69.79%
- Activity (MV4-11 [11]): 11.6%
- Activity (MV4-11 [12]): 28.68%
- Activity (MV4-11 [13]): 2%
- Activity (MV4-11 [14]): 30.54%
- Activity (MV4-11 [15]): 4.06%
- Activity (MOLM-13 [16]): 7.13%
- Activity (MOLM-13 [17]): 42.35%
- Activity (MOLM-13 [18]): 47.75%
- Activity (MOLM-13 [19]): 4.16%
- viability at 0.001 µM (MV4-11 [20]): 97.2%
- Activity (MV4-11 [21]): 0.99%
- Activity (MV4-11 [22]): 6.55%
- Activity (MOLM-13 [23]): 0.75%
- Activity (MV4-11 [24]): Dose-Dependent Effect
- Activity [25]: Active
- Activity [26]: Dose-Dependent Effect
- AUC(0-t) [27]: 2.88 µg·h/mL
- AUC(0-inf) [28]: 22.7 µg·h/mL
- Cmax [29]: 1.88 µg/mL
- bioavailability [30]: 73.6%
- inhibition in vivo at 20 mg/kg (MOLM-13 [31]): 98%
- Activity [32]: Non-Toxic
- Activity [33]: Non-Toxic
- Activity [34]: Non-Toxic
- Activity [35]: Non-Toxic
- Activity [36]: Non-Toxic

SMILES: CCN(CC)CCNC(=O)c1c(C)[nH]c(/C=C2\C(=O)Nc3ccc(F)cc32)c1C [SUNITINIB]
- IC50 (MOLM-13 [1]): 0.0696 µM
- Activity (MOLM-13 [8]): -0.5%
- Activity (MOLM-13 [9]): -0.6%
- Activity (MV4-11 [10]): 66.78%
- Activity (MV4-11 [11]): 13.27%
- Activity (MV4-11 [13]): 2.53%
- Activity (MV4-11 [15]): 3.91%
- Activity (MOLM-13 [17]): 49.02%
- Activity (MOLM-13 [18]): 41.02%
- viability at 0.001 µM (MV4-11 [20]): 98.4%
- Activity (MV4-11 [21]): 1.03%
- Activity (MV4-11 [22]): 6.58%
- Activity (MOLM-13 [23]): 1.14%
